For data set [1], the target named is T1, Mu receptor, mouse vas deferens (Mus musculus, UniProt P42866).
T1 construct: Mouse vasa deferentia (MVD), CD-1 strain, Harlan, Raleigh, N.C.) were removed from mice; tissue Harlan, Raleigh, N.C; (animals); host or cells: mouse vas deferens, CD-1 strain
Kind of data set: Mouse vas deferens, inhibition of electrically induced contractions, mu (with TIPP and nor-BNI). Format: cell-based. The note with it: in presence of 3 μM TIPP and 15 nM nor-BNI; read-out: Mouse Vas Deferens ED50 (nM) μ.

The next data set deals with T2, μ opioid receptor (Rattus norvegicus, UniProt P33535).
T2 construct: tissue Pel-Freeze Biological Inc. (Rogers, Ark.); host or cells: rat whole brain membranes
Nature of the data set: Radioligand binding, [3H]DAMGO competition, rat brain membranes. The note with it: rat brain membranes, [3H]DAMGO; read-out: Rat Brain Membrane K1 (nM) μ. Here is the method: (§1) Two stereoisomerically related racemic mixtures and inclusive enantiomers were evaluated for in vitro opioid receptor affinity in rat brain membranes (μ and δ opioid) and guinea pig cerebellum (κ opioid receptor). Membranes for radioligand binding were prepared from either rat whole brain or guinea pig cerebellum, supplied by Pel-Freeze Biological Inc. (Rogers, Ark.). Tissues were homogenized in 50 mM TRIS (Tris[hydrooxymethyl]aminomethane) buffer (pH 7.4) containing 50 ug/ml soybean trypsin inhibitor, 1 mM EDTA (Ethylenediaminetetraacetic acid), and 100 μM PMSF (Phenylmethylsulfonyl fluoride). The homogenized brain tissues were centrifuged at 500×g for 30 minutes (4° C.) to remove large debris. The supernatant was polytronically sonicated for 10 seconds (P.E. setting of 2, 4° C.). Sucrose solution was then added to a final concentration of 0.35 M using a 10 mM TRIS-Sucrose buffer (pH 7.4) and the brain membranes were then centrifuged at 40,000×g for 30 minutes (4° C.). The membrane pellets were then washed twice in 10 mM TRIS buffer (pH 7.4) containing 50 μg/ml soybean trypsin inhibitor, 1 mM EDTA, and 100 μM PMSF.
(§2) Radioligand binding assays were performed in 10 mM TRIS buffer (pH 7.4) containing 50 μg/ml soybean trypsin inhibitor, 1 mM EDTA, 5 mM MgCl2, and 100 μM PMSF. Tritium-labeled DAMGO (μ), Deltorphin II (δ), or U69593 (κ) purchased from New England Nuclear were used as ligands in competitive experiments (2-3×10^−10 M final concentrations) with non-specific binding defined by 0.5×10^−6 M Naloxone (purchased from SIGMA Chemical Co.). All binding assays were run at room temperature for 90 minutes and then terminated by rapid filtration on GF/C glass fiber filters (Whatman, Hillsboro, Oreg.) with 50 mM TRIS buffer (4° C., pH 7.4) employing a Brandel Semi-automatic Cell Harvester (Model M48, Brandel, Gaithersburg, Md.). The filters were washed twice with 50 mM TRIS buffer (4° C., pH 7.4) and the filters were placed in liquid scintillation cocktail and the bound radioactivity counted on a Beckman LS 6500 scintillation counter. The potency of the compounds in inhibiting the binding of radiolabelled DAMGO (μ), Deltorphin II (δ), or U69593 (κ) was determined from full concentration-effect curves. With the computer program Prism (GraphPad Software Inc., San Diego, Calif.) the IC50 values were determined using a one-site nonlinear regression analysis of the radioligand binding data. The IC50 values were then converted to Ki values using the Cheng-Prusoff equation. (Cheng Y and Prusoff W H (1973) Relationship between the inhibition constant (K1) and the concentration of inhibitor which causes 50 percent inhibition (I50) of a enzymatic reaction. Biochem Pharm 22:3099-3108.)

A further data set deals with T3, δ opioid receptor (Rattus norvegicus, UniProt P33533).
T3 construct: tissue Pel-Freeze Biological Inc. (Rogers, Ark.); host or cells: rat whole brain membranes
Kind of data set: Radioligand binding, [3H]Deltorphin II competition, rat brain membranes. The note with it: read-out: Rat Brain Membrane K1 (nM) δ. The method, then: as §1, §2

Data set [2] concerns rats. Kind of data set: Respiratory depression by blood gas (pCO2) monitoring in rats. Format: in vivo. The note with it: rat; for Respiratory Depression % Units Baseline pCO2: 0.30 mg/kg i.v. The method, then:
(§3) Analgesia was assayed in rats using the tail pinch test with simultaneous monitoring of capillary blood gases (pCO2). During this testing period respiratory depression values were also obtained. Male rats (Wistar Hannover 200-300 g) were anesthetized with 2% isoflurane (J. A. Webster, Inc., Sterling, Mass. The femoral artery was cannulated with PE50 tubing for blood sampling. The external jugular vein was also cannulated with Silastic tubing for drug injection. After surgery, anesthetic gases were removed and the rat was allowed to rest in a plastic restrainer for 60 minutes to establish baseline values of blood gases.
(§4) The compounds 1-6 were administered intravenous. Nociceptive response and respiratory values were obtained for a 1-2 hour period. The femoral artery cannulation was used to draw arterial blood into a syringe pre-wetted with heparin. Samples were then analyzed with a blood gas analyzer (Ph/Gas Analyzer Synthesis 25 Model, Instrumentation Laboratory) to assess respiratory depression effects. The volume of blood taken each time was 0.15 cc. The syringes were capped immediately and the blood gases analyzed within 5 minutes. The blood exposed to air at the tip of the syringe was expelled. The blood was mixed by gentle inversion and an aliquots of 0.10 cc was injected into the blood gas analyzer.
(§5) The gas analyzer was well maintained and operated. Calibrations (low, normal and high) were done at the beginning of every day of testing. The sample lines, co-oximeter and the blood gas electrode were cleaned regularly at the end of every day of testing. Hematocrit calibration (high and low) was scheduled on a weekly basis and tubing, sample and pinch valve were replaced on a monthly basis.
(§6) The ED50 values for analgesia potency and respiratory depression were determined to calculate the safety or therapeutic ratio, which is defined as the respiratory depression ED50 divided by analgesia ED50.

Test in data set [3]: as above
In kind it is in vivo. The note with it: male, Wistar Hannover, in vivo; rat, intravenous. The method, then:
as §3, §4, §5, §6

The target of data set [4] is T4, Delta receptor, mouse vas deferens (Mus musculus, UniProt P32300).
T4 construct: Mouse vasa deferentia (MVD), CD-1 strain, Harlan, Raleigh, N.C.) were removed from mice; tissue Harlan, Raleigh, N.C; (animals); host or cells: mouse vas deferens, CD-1 strain
Nature of the data set: Mouse vas deferens, inhibition of electrically induced contractions, delta. Particulars: read-out: Mouse Vas Deferens ED50 (nM) δ. In kind it is cell-based. The method, then: The compound of formula (I) and compounds 1, 3, 4, 5 and 6 as identified above, were evaluated for in vitro opioid receptor activity in various receptor systems, including mouse vas deferens (Mouse Vas Deferens ED50), and guinea pig ileum (Guinea Pig Ileum ED50). The assay procedures used for such determinations of receptor activity are set out below.
In vitro bioassays: Mouse vasa deferentia (MVD), CD-1 strain, Harlan, Raleigh, N.C.) were removed from mice and suspended between platinum electrodes with 0.5 g of tension in organ bath chambers containing a modified Mg^++ free Krebs buffer of the following composition (millimolar): NaCl, 117.5; KCl, 4.75; CaCl2, 2.6; KH2PO4, 1.20; NaHCO3, 24.5; and glucose, 11. The buffer was saturated with 95% O2/5% CO2 and kept at 37° C. Tissues were stimulated at supramaximal voltage with 10-Hz pulse trains for 400-msec.; train interval 10 seconds; and 1.0 msec pulse duration at maximal voltage. Delta receptor activity was determined by adding appropriate concentrations of test compound to organ baths and allowing a maximal response before addition of the next higher concentration.
The ED50 values were extrapolated from curves showing the dose concentration plotted against the response (J. A. H. Lord, A. A. Waterfield, J. Hughes, H. W. Kosterlitz, Nature 267, 495, (1977)).

The test system of data set [5] is rats. Nature of the data set: Tail pinch test for analgesia in rats. The note with it: rat; for Analgesia (delay of response to tail pinch): 0.30 mg/kg i.v., cutoff 20 sec. In kind it is in vivo. The method, then:
as §3, §4
An artery clamp was placed on the tail (one inch from the tip of the tail) for a short duration until an escape response occurred (i.e. tail-flick or vocalization). The escape response latency was recorded by means of a stopwatch. A cutoff time of 20 sec. was used to prevent unnecessary tissue damage. […] The elapsed time to elicit a pain response was recorded as the tail pinch latency in seconds. Blood gases were monitored at approximately the same time points as the tail pinch test.
as §6

Another data set has as its target T5, κ opioid receptor (Cavia porcellus, UniProt P41144).
T5 construct: tissue Pel-Freeze Biological Inc. (Rogers, Ark.); host or cells: guinea pig cerebellum membranes
Kind of data set: Radioligand binding, [3H]U69593 competition, guinea pig cerebellum membranes. The note with it: read-out: Guinea Pig Brain Membrane K1 (nM) κ. Here is the method:
as §1, §2

Each structure is given as a SMILES string.

As a reminder, the ED50 is the midpoint of the dose-response relation. Higher therefore signals a need for a large dose.

`C=CCN1C[C@@H](C)N([C@@H](c2ccsc2)c2cccc(O)c2)C[C@@H]1C` (racemic) [Compound 1, (±)3-((R*)-((2R*,5S*)-4-allyl-2,5-dimethyl-1-piperazinyl)(3-thienyl)methyl)phenol]: the EC50 in data set [1] is 881 nM; in data set [4] it was 30 nM. Besides, the results for the Ki on μ opioid receptor, at δ opioid receptor and on κ opioid receptor were 0.36 nM, 1.29 nM and 1.67 nM, respectively. In addition, the “Respiratory Depression % Units Baseline pCO2” value in the data set with rats [2] (4 min.) amounted to 21%; in the data set with rats [2] (8 min.) it was 25%; with rats [2] (32 min.), 7%. In addition, the “Safety Ratio (respiratory depression ED50 divided by analgesia ED50)” value with rats [2] (intravenous) was 4.7. Further, the ED50 amounted to 0.98 mg/kg in data set [3] and 0.21 mg/kg in the data set with rats [5] (intravenous, tail pinch, 20 sec cutoff). Further, the “Analgesia (delay of response to tail pinch)” value in the data set on rats [5] (4 min.) came to 19.5 s; in the data set on rats [5] (8 min.), 10.5 s; in the data set with rats [5] (32 min.), 1 s.

Source of the values: patent publication US6924288B2, “Enantiomerically pure opioid diarylmethylpiperzine and methods of using same” (priority 2001, dated 2005).
